Key:
Assay in all cases: relative viability (nuclei count vs DMSO), 5 days (fraction); higher = more cells survive
Everolimus + Foretinib = compound: CO[C@H]1C[C@@H]2CC[C@@H](C)[C@@](O)(O2)C(=O)C(=O)N2CCCC[C@H]2C(=O)O[C@H]([C@H](C)C[C@@H]2CC[C@@H](OCCO)[C@H](OC)C2)CC(=O)[C@H](C)/C=C(\C)[C@@H](O)[C@@H](OC)C(=O)[C@H](C)C[C@H](C)/C=C/C=C/C=C/1C [Everolimus] + COc1cc2c(Oc3ccc(NC(=O)C4(C(=O)Nc5ccc(F)cc5)CC4)cc3F)ccnc2cc1OCCCN1CCOCC1 [Foretinib] (partner 0.25 µM)
In short: (§1)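 Nuclei were stained with Hoechst during a one-step fixation (final 0.05% Triton X-100, 1% formaldehyde, 1 ug/ml Hoechst) carried out 5 days after dosing, then counted on 4× images. The cells, lung cancer lines in 1536-well plates, had been dosed by pin tool the day after seeding with one drug alone or a fixed anchor-drug dose plus five library-drug doses (not always all listed) in √10 steps. Relative viability is the nuclei count in treated wells divided by that in vehicle wells, and each value is the median of duplicate plates.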

Everolimus + Decitabine = compound: CO[C@H]1C[C@@H]2CC[C@@H](C)[C@@](O)(O2)C(=O)C(=O)N2CCCC[C@H]2C(=O)O[C@H]([C@H](C)C[C@@H]2CC[C@@H](OCCO)[C@H](OC)C2)CC(=O)[C@H](C)/C=C(\C)[C@@H](O)[C@@H](OC)C(=O)[C@H](C)C[C@H](C)/C=C/C=C/C=C/1C [Everolimus] + Nc1ncn([C@H]2C[C@H](O)[C@@H](CO)O2)c(=O)n1 [Decitabine] (partner 2 µM)
In short: as §1

Everolimus + Luminespib = compound: CO[C@H]1C[C@@H]2CC[C@@H](C)[C@@](O)(O2)C(=O)C(=O)N2CCCC[C@H]2C(=O)O[C@H]([C@H](C)C[C@@H]2CC[C@@H](OCCO)[C@H](OC)C2)CC(=O)[C@H](C)/C=C(\C)[C@@H](O)[C@@H](OC)C(=O)[C@H](C)C[C@H](C)/C=C/C=C/C=C/1C [Everolimus] + CCNC(=O)c1noc(-c2cc(C(C)C)c(O)cc2O)c1-c1ccc(CN2CCOCC2)cc1 [Luminespib] (partner 0.01 µM)
In short: as §1

Everolimus + Dasatinib = compound: CO[C@H]1C[C@@H]2CC[C@@H](C)[C@@](O)(O2)C(=O)C(=O)N2CCCC[C@H]2C(=O)O[C@H]([C@H](C)C[C@@H]2CC[C@@H](OCCO)[C@H](OC)C2)CC(=O)[C@H](C)/C=C(\C)[C@@H](O)[C@@H](OC)C(=O)[C@H](C)C[C@H](C)/C=C/C=C/C=C/1C [Everolimus] + Cc1nc(Nc2ncc(C(=O)Nc3c(C)cccc3Cl)s2)cc(N2CCN(CCO)CC2)n1 [Dasatinib] (partner 0.075 µM)
In short: as §1

Cell Line | relative viability (Everolimus + Foretinib; first compound 0.01 µM) | relative viability (Everolimus + Foretinib; first compound 0.03162 µM) | relative viability (Everolimus + Foretinib; first compound 0.1 µM) | relative viability (Everolimus + Foretinib; first compound 0.3162 µM) | relative viability (Everolimus + Foretinib; first compound 1 µM) | relative viability (Everolimus + Decitabine; first compound 0.01 µM) | relative viability (Everolimus + Decitabine; first compound 0.03162 µM) | relative viability (Everolimus + Decitabine; first compound 0.1 µM) | relative viability (Everolimus + Decitabine; first compound 0.3162 µM) | relative viability (Everolimus + Decitabine; first compound 1 µM) | relative viability (Everolimus + Luminespib; first compound 0.01 µM) | relative viability (Everolimus + Luminespib; first compound 0.03162 µM) | relative viability (Everolimus + Luminespib; first compound 0.1 µM) | relative viability (Everolimus + Luminespib; first compound 0.3162 µM) | relative viability (Everolimus + Luminespib; first compound 1 µM) | relative viability (Everolimus + Dasatinib; first compound 0.01 µM) | relative viability (Everolimus + Dasatinib; first compound 0.03162 µM) | relative viability (Everolimus + Dasatinib; first compound 0.1 µM) | relative viability (Everolimus + Dasatinib; first compound 0.3162 µM) | relative viability (Everolimus + Dasatinib; first compound 1 µM)
NCI-H2126 | 0.97 | 0.925 | 0.892 | 0.772 | 0.73 | 0.484 | 0.421 | 0.452 | 0.505 | 0.497 | 0.532 | 0.457 | 0.42 | 0.564 | 0.381 | 0.422 | 0.423 | 0.35 | 0.467 | 0.373
NCI-H2170 | 0.635 | 0.641 | 0.654 | 0.587 | 0.614 | 0.287 | 0.274 | 0.257 | 0.28 | 0.262 | 0.291 | 0.175 | 0.229 | 0.316 | 0.198 | 0.366 | 0.292 | 0.312 | 0.302 | 0.262
NCI-H2342 | 0.924 | 0.654 | 0.551 | 0.618 | 0.681 | 0.652 | 0.534 | 0.474 | 0.512 | 0.537 | 0.668 | 0.496 | 0.426 | 0.46 | 0.553 | 0.274 | 0.323 | 0.277 | 0.262 | 0.319
NCI-H2347 | 0.855 | 0.499 | 0.511 | 0.684 | 0.552 | 0.567 | 0.509 | 0.553 | 0.526 | 0.548 | 0.497 | 0.367 | 0.301 | 0.332 | 0.362 | 0.242 | 0.285 | 0.188 | 0.293 | 0.189
NCI-H2405 | 0.973 | 0.857 | 0.763 | 0.809 | 0.781 | 0.521 | 0.531 | 0.539 | 0.532 | 0.52 | 0.657 | 0.548 | 0.523 | 0.52 | 0.484 | 0.207 | 0.211 | 0.183 | 0.182 | 0.209
NCI-H3122 | 0.818 | 0.621 | 0.351 | 0.494 | 0.801 | 0.267 | 0.253 | 0.213 | 0.215 | 0.203 | 0.105 | 0.0862 | 0.0973 | 0.113 | 0.0788 | 0.584 | 0.0535 | 0.0826 | 0.0717 | 0.112
PC-3 [JPC-3] | 1.16 | 1.13 | 0.994 | 0.985 | 0.987 | 0.813 | 0.794 | 0.687 |  | 0.802 | 0.466 | 0.517 | 0.493 | 0.372 | 0.474 | 0.93 | 0.77 | 0.797 | 0.669 | 0.675
PC-14 | 0.986 | 0.968 | 0.928 | 0.756 | 0.854 | 0.276 | 0.26 | 0.235 | 0.296 | 0.293 | 0.175 | 0.171 | 0.145 | 0.171 | 0.191 | 0.23 | 0.168 | 0.216 | 0.237 | 0.177
RERF-LC-KJ | 0.686 | 0.694 | 0.578 | 0.539 | 0.559 | 0.535 | 0.594 | 0.552 | 0.541 | 0.45 | 0.895 | 0.834 | 0.807 | 0.848 | 0.646 | 0.589 | 0.573 | 0.483 | 0.549 | 0.457
SK-LU-1 | 0.41 | 0.438 | 0.449 | 0.432 | 0.469 | 0.411 | 0.474 | 0.474 | 0.516 | 0.524 | 0.183 | 0.147 | 0.174 | 0.164 | 0.168 | 0.16 | 0.166 | 0.177 | 0.176 | 0.188
SK-MES-1 | 0.701 | 0.662 | 0.638 | 0.501 | 0.547 | 0.346 | 0.362 | 0.335 | 0.345 | 0.501 | 0.347 | 0.383 | 0.329 | 0.281 | 0.331 | 0.357 | 0.339 | 0.398 | 0.346 | 0.331
SW 900 | 0.685 | 0.477 | 0.748 | 0.525 | 0.508 | 0.434 | 0.404 | 0.4 | 0.406 | 0.439 | 0.173 | 0.174 | 0.165 | 0.154 | 0.169 | 0.571 | 0.345 | 0.34 | 0.45 | 0.335
SW 1573 | 0.584 | 0.647 | 0.589 | 0.58 | 0.52 | 0.268 | 0.331 | 0.298 | 0.306 | 0.338 | 0.172 | 0.181 | 0.359 | 0.215 | 0.216 | 0.259 | 0.353 | 0.207 | 0.244 | 0.215
UMC-11 | 0.478 | 0.371 | 0.441 | 0.422 | 0.401 | 0.329 | 0.359 | 0.352 | 0.367 | 0.392 | 0.328 | 0.348 | 0.385 | 0.343 | 0.366 | 0.307 | 0.293 | 0.326 | 0.319 | 0.302
